These results are taken from patent US20220380347A1, “INHIBITORS OF CYSTEINE PROTEASES AND METHODS OF USE THEREOF” (Pardes Biosciences, Inc., priority 2020, published 2022).

Like-named read-outs stand apart in the source and are kept apart here. Bounds are passed on as bounds.

The target in one assay is 229E Mpro (Human coronavirus 229E, UniProt P0C6X1). The experiment in a line: 229E Mpro enzymatic assay (standard methods, SARS-CoV2 Mpro assay given as exemplary). It counts as biochemical, human coronavirus (HCov) 229E. The procedure, abridged:
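IC50 for 229E Mpro by standard methods; exemplary SARS-CoV-2 protocol used C-His6-tagged Mpro from E. coli, 25 nM enzyme, 25 μM substrate (Km 13.5 μM), in Tris-HCl pH 7.3, NaCl, EDTA, TCEP, 0.1% BSA. Inhibition normalised to no-compound and full-effect controls; four-parameter fit.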

In assay [1] the target is COVID-19 (nCoV-2019, SARS-CoV2) Mpro (Severe acute respiratory syndrome coronavirus 2, UniProt P0DTD1). The assay can be described thus: COVID-19 (nCoV-2019, SARS-CoV2) Mpro enzymatic assay. In kind it is biochemical. The conditions noted are these: 25 nM Mpro, 25 μM substrate; read-out: COVID-19 Mpro IC50.
For a further assay, the system named is HCov OC43. The experiment in a line: HCoV OC43 cytopathic effect (CPE) assay, CellTiter Glo. In kind it is cell-based, human coronavirus (HCov) OC43. (In general: Cytopathic effects are the visible damage that an infection or toxin causes in cultured cells.)
[2] abbreviates: Betacoronavirus 1, OC43, read-out: OC43 IC50 (uM) MEDIAN, median.
The mark [3] stands for this setting: read-out: OC43 IC50 (uM) MEDIAN, median.

Chain of 229E Mpro (P0C6X1 2966-3267): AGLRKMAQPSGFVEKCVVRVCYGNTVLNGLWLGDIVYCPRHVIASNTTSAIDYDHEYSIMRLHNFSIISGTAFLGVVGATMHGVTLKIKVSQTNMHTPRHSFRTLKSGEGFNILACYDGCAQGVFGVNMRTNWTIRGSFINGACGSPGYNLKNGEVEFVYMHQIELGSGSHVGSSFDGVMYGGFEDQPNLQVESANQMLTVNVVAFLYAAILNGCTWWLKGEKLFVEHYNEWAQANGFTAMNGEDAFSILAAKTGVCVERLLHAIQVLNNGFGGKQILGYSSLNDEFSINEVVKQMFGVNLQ

A word on the EC50: it is the concentration that produces a half-maximal response. A word on the IC50: it is the concentration at which inhibition is half-maximal. Molecule `CC(C)(C)OC(=O)NC1CCN(C(=O)C(c2cccnc2)N(C(=O)[C@H]2CCCN2C#N)c2ccc(C(C)(C)C)cc2)CC1` (stereo partly drawn) [Compound 966b] came in with an EC50 on 229E Mpro (229E Mpro EC50) of 2000 to 10000 nM. In addition, the IC50 in assay [1] lay within 10000 to 30000 nM; in the assay with HCov OC43 (setting [2]), 10 to 30 µM.

For `CC(C)(C)c1ccc(N(C(=O)[C@H]2Cc3ccccc3CN2C#N)C(C(=O)NC2CCCCC2)c2cccnc2)cc1` (single isomer, unassigned) [Compound 374 Isomer 1], at 229E Mpro (229E Mpro EC50), the EC50 was over 30000 nM. The IC50 in assay [1] was over 30000 nM; in the assay on HCov OC43 (read-out: OC43 IC50 (uM) MEDIAN, median, listed as 374 Isomer 1), over 30 µM.

As to `CC(C)(C)O[C@@H]1C[C@H](C(=O)N(c2ccc(C(C)(C)C)cc2)C(C(=O)NC2CCCCC2)c2cccnc2)N(C#N)C1` (single isomer, unassigned) [Compound 299 Isomer 1], the EC50 at 229E Mpro (229E Mpro EC50) was in the range of 10000 to 30000 nM. Also, the IC50 in assay [1] lay in the range of 10000 to 30000 nM; with HCov OC43 (read-out: OC43 IC50 (uM) MEDIAN, median, listed as 299 Isomer 1) it was 10 to 30 µM.

Molecule `CO[C@@H]1C[C@H](C(=O)N(c2ccc(S(F)(F)(F)(F)F)cc2)C(C(=O)Nc2ccc3c(c2)OCCO3)c2cccnc2)N(C#N)C1` (single isomer, unassigned) [1170 Isomer 1] gave a concentration giving a half-maximal response (EC50) on 229E Mpro (229E Mpro EC50) of 2000 to 10000 nM. Further, the IC50 in assay [1] lay in the range of 10000 to 30000 nM; with HCov OC43 (setting [2]) it was 2 to 10 µM.

Turning to `C[C@H](NC(=O)C(c1cnccn1)N(C(=O)c1ccco1)c1ccc(-c2ccccc2)cc1)c1ccccc1` (single isomer, unassigned) [1355 Isomer 1], the EC50 on 229E Mpro (229E Mpro EC50) fell in the range of 2000 to 10000 nM. The IC50 is under 2000 nM in assay [1] and over 30 µM in the assay with HCov OC43 (setting [2]).

`N#CN1CC(=O)NCC1C(=O)N(c1ccc(S(F)(F)(F)(F)F)cc1)C(C(=O)NC1CCC(F)(F)CC1)c1cncc(F)c1` (single isomer, unassigned) [Compound 1160 Isomer 4, 1-cyano-N-[2-[(4,4-difluorocyclohexyl)amino]-1-(5-fluoro-3-pyridyl)-2-oxo-ethyl]-5-oxo-N-[4-(pentafluoro-λ^6-sulfanyl)phenyl]piperazine-2-carboxamide]: the EC50 at 229E Mpro (229E Mpro EC50) is under 2000 nM. In addition, the IC50 in assay [1] was 2000 to 10000 nM; with HCov OC43 (read-out: OC43 IC50 (uM) MEDIAN, median, listed as 1160 Isomer 4), 2 to 10 µM.

At 229E Mpro (229E Mpro EC50), `N#CN1CCC(F)(F)C1C(=O)N(c1ccc(S(F)(F)(F)(F)F)cc1)C(C(=O)NC1CCOCC1)c1cncc(F)c1` (stereo not drawn) [Compound 1274, 1-cyano-3,3-difluoro-N-[1-(5-fluoro-3-pyridyl)-2-oxo-2-(tetrahydropyran-4-ylamino)ethyl]-N-[4-(pentafluoro-λ^6-sulfanyl)phenyl]pyrrolidine-2-carboxamide] gave an EC50 of under 2000 nM. Moreover, the IC50 in assay [1] is under 2000 nM; in the assay on HCov OC43 (setting [2]), under 2 µM.

In turn, `CN1C[C@H](C(=O)N(c2ccc(S(F)(F)(F)(F)F)cc2)C(C(=O)NC2CCOCC2)c2cccnc2)N(C#N)CC1=O` (stereo partly drawn) [Compound 813] came in with a half-maximal effective concentration (EC50) on 229E Mpro (229E Mpro EC50) of under 2000 nM. For the same molecule, the IC50 in assay [1] was under 2000 nM; with HCov OC43 (setting [2]), under 2 µM.

At 229E Mpro (229E Mpro EC50), `CC(C)(C)c1ccc(N(C(=O)C2NCC[C@H]2F)C(C(=O)NC2CCCCC2)c2cccnc2)cc1` (stereo partly drawn) [Compound 853] returned an EC50 of 2000 to 10000 nM. Further, the IC50 is 2000 to 10000 nM in assay [1] and 2 to 10 µM in the assay with HCov OC43 (setting [2]).

Take `N#CN1CCOC[C@@H]1C(=O)N(c1ccc(C2CC2)cc1F)C(C(=O)NC1CCC(F)(F)CC1)c1cnccc1C(F)(F)F` (single isomer, unassigned) [Compound 1313 Isomer 2]: the EC50 at 229E Mpro (read-out: 229E Mpro EC50) was under 2000 nM. Besides, the 50% inhibitory concentration (IC50) in assay [1] lay in the range of 2000 to 10000 nM; in the assay with HCov OC43 (setting [3]), 2 to 10 µM.

On 229E Mpro (229E Mpro EC50), `N#CN1CC(=O)NC[C@@H]1C(=O)N(c1ccc(S(F)(F)(F)(F)F)cc1)C(C(=O)NC1CCOCC1)c1cccnc1` (stereo partly drawn) [Compound 811, 1-cyano-5-oxo-N-[2-oxo-1-(3-pyridyl)-2-(tetrahydropyran-4-ylamino)ethyl]-N-[4-(pentafluoro-λ^6-sulfanyl)phenyl]piperazine-2-carboxamide] gave an EC50 of under 2000 nM. For the same molecule, the IC50 in assay [1] is under 2000 nM; with HCov OC43 (setting [2]) it was under 2 µM.

On to `C[C@H]1CN(C#N)[C@H]1C(=O)N(c1ccc(S(F)(F)(F)(F)F)cc1)C(C(=O)NC1CCC(F)(F)CC1)c1cncc(F)c1` (single isomer, unassigned) [1210 Isomer 2], for which the EC50 on 229E Mpro (read-out: 229E Mpro EC50) was under 2000 nM. In addition, the IC50 is under 2000 nM in assay [1] and under 2 µM with HCov OC43 (setting [3]).

As for `CC(C)(C)c1ccc(N(C(=O)[C@H]2Cc3ccccc3CN2C#N)C(C(=O)NC2CCCCC2)c2cccnc2)cc1` (single isomer, unassigned) [Compound 374 Isomer 2], on 229E Mpro (229E Mpro EC50), the EC50 was under 2000 nM. Moreover, the IC50 in assay [1] is under 2000 nM; in the assay with HCov OC43 (read-out: OC43 IC50 (uM) MEDIAN, median, listed as 374 Isomer 2), 2 to 10 µM.

As to `COc1ccc(NC(=O)C(c2cccnc2)N(C(=O)[C@H]2CCCN2C#N)c2ccc(C(C)(C)C)cc2)cn1` (single isomer, unassigned) [Compound 407 Isomer 2], the EC50 on 229E Mpro (229E Mpro EC50) was 10000 to 30000 nM. Besides, the IC50 in assay [1] was over 30000 nM; in the assay with HCov OC43 (read-out: OC43 IC50 (uM) MEDIAN, median, listed as 407 Isomer 2), over 30 µM.

`CO[C@@H]1C[C@H](C(=O)N(c2ccc(S(F)(F)(F)(F)F)cc2)C(C(=O)NC(C)C2CCCCN2C(=O)OC(C)(C)C)c2cccnc2)N(C#N)C1` (single isomer, unassigned) [1303 Isomer 3] had an EC50 on 229E Mpro (229E Mpro EC50) of under 2000 nM. The IC50 in assay [1] was under 2000 nM; in the assay with HCov OC43 (setting [3]) it was under 2 µM.

`CN1CC(C(=O)N(c2ccc(S(F)(F)(F)(F)F)cc2)C(C(=O)NC2CCC(F)(F)CC2)c2cncc(F)c2)N(C#N)CC1=O` (single isomer, unassigned) [Compound 1161 Isomer 3, 1-cyano-N-[2-[(4,4-difluorocyclohexyl)amino]-1-(5-fluoro-3-pyridyl)-2-oxo-ethyl]-4-methyl-5-oxo-N-[4-(pentafluoro-λ6-sulfanyl)phenyl]piperazine-2-carboxamide]: the EC50 on 229E Mpro (229E Mpro EC50) lay in the range of 2000 to 10000 nM. In addition, the IC50 in assay [1] is 2000 to 10000 nM; with HCov OC43 (read-out: OC43 IC50 (uM) MEDIAN, median, listed as 1161 Isomer 3) it was 10 to 30 µM.

As for `O=C(NC1CCC(F)(F)CC1)C(c1cncc(F)c1)N(C(=O)c1cnc[nH]1)c1ccc(C2CC2)cc1F` (single isomer, unassigned) [1336 Isomer 2, N-(4-cyclopropyl-2-fluorophenyl)-N-(2-((4,4-difluorocyclohexyl)amino)-1-(5-fluoropyridin-3-yl)-2-oxoethyl)-1H-imidazole-5-carboxamide], on 229E Mpro (229E Mpro EC50), the EC50 fell in the range of 10000 to 30000 nM. The IC50 in assay [1] is 10000 to 30000 nM; with HCov OC43 (setting [3]), over 30 µM.

In turn, `CO[C@@H]1C[C@H](C(=O)N(c2ccc(C(C)(C)C)cc2)C(C(=O)NC2CCCCC2)c2cccnc2)N(C#N)C1` (single isomer, unassigned) [Compound 292 Isomer 1] returned an EC50 on 229E Mpro (229E Mpro EC50) of under 2000 nM. For the same molecule, the IC50 in assay [1] was 2000 to 10000 nM; in the assay with HCov OC43 (setting [2]) it was 2 to 10 µM.

Turning to `C[C@H](NC(=O)C(c1cncc(F)c1)N(C(=O)[C@H]1C[C@@](C)(O)CN1C#N)c1ccc(S(F)(F)(F)(F)F)cc1)c1ccccc1` (single isomer, unassigned) [1328 Isomer 1], at 229E Mpro (229E Mpro EC50), the EC50 is under 2000 nM. Further, the concentration for half-maximal inhibition (IC50) is under 2000 nM in assay [1] and under 2 µM in the assay on HCov OC43 (setting [2]).

Regarding `CO[C@@H]1C[C@H](C(=O)N(c2ccc(C(C)(C)C)cc2)C(C)(C(=O)NC2CCC(F)(F)CC2)c2cnccn2)N(C#N)C1` (single isomer, unassigned) [1198 Isomer 1], the EC50 on 229E Mpro (229E Mpro EC50) lay in the range of 2000 to 10000 nM. The IC50 in assay [1] lay in the range of 10000 to 30000 nM; in the assay on HCov OC43 (setting [2]) it was 2 to 10 µM.

In turn, `N#CN1C[C@H]2C[C@H]2[C@@H]1C(=O)N(c1ccc(S(F)(F)(F)(F)F)cc1)C(C(=O)NC1CCC(F)(F)CC1)c1cncc(F)c1` (single isomer, unassigned) [Compound 1095b Isomer 1] came in with an EC50 on 229E Mpro (229E Mpro EC50) of under 2000 nM. Also, the IC50 in assay [1] is under 2000 nM; in the assay with HCov OC43 (setting [2]) it was under 2 µM.

In turn, `[2H]C(C(=O)NC1CCOCC1)(c1cnccn1)N(C(=O)[C@H]1C[C@@](C)(O)CN1C#N)c1ccc(S(F)(F)(F)(F)F)cc1` (stereo partly drawn) [Compound 1305, (2R,4R)-1-cyano-N-[1-deuterio-2-oxo-1-pyrazin-2-yl-2-(tetrahydropyran-4-ylamino)ethyl]-4-hydroxy-4-methyl-N-[4-(pentafluoro-λ^6-sulfanyl)phenyl]pyrrolidine-2-carboxamide] returned an EC50 at 229E Mpro (229E Mpro EC50) of over 30000 nM. Besides, the values for the IC50 (in assay [1]; in the assay on HCov OC43 (setting [2])) were over 30000 nM and over 30 µM, respectively.

Take `N#CN1C[C@H](F)C[C@@H]1C(=O)N(c1ccc(S(F)(F)(F)(F)F)cc1)C(C(=O)NC1CCC(F)(F)CC1)c1cncc(F)c1` (single isomer, unassigned) [Compound 1098 Isomer 2]: the EC50 on 229E Mpro (read-out: 229E Mpro EC50) is under 2000 nM. In addition, the values for the IC50 (in assay [1]; in the assay on HCov OC43 (setting [3])) were under 2000 nM and under 2 µM, respectively.

In turn, `CO[C@@H]1C[C@H](C(=O)N(c2ccc(S(F)(F)(F)(F)F)cc2)C(C(=O)NC(C)C2CCCCN2C(=O)OC(C)(C)C)c2cccnc2)N(C#N)C1` (single isomer, unassigned) [1303 Isomer 3.1] registered an EC50 on 229E Mpro (229E Mpro EC50) of under 2000 nM. Moreover, the IC50 is under 2000 nM in assay [1] and under 2 µM in the assay on HCov OC43 (setting [3]).

On 229E Mpro (229E Mpro EC50), `CO[C@@H]1C[C@H](C(=O)N(c2ccc(S(F)(F)(F)(F)F)cc2)C(C(=O)NC2CCC(F)(F)CC2)c2cnccc2C#N)N(C#N)C1` (stereo partly drawn) [Compound 1200, (2R,4R)-1-cyano-N-[l-(4-cyano-3-pyridyl)-2-[(4,4-difluorocyclohexyl)amino]-2-oxo-ethyl]-4-methoxy-N-[4-(pentafluoro-λ6-sulfanyl)phenyl]pyrrolidine-2-carboxamide] came in with an EC50 of under 2000 nM. Moreover, the IC50 in assay [1] was under 2000 nM; in the assay on HCov OC43 (setting [2]), under 2 µM.
